Test results as given in patent publication US20260217701A1, “SELECTIVE BET INHIBITORS AND USES THEREOF” (Tay Therapeutics Limited, priority 2022, published 2026).
Marks after values point to notes of the source that are not given here. Values belong to the compound of their own block, whether it stands above or below them.

What was measured:
[1] = target: T1, BRD4 BD2 (Homo sapiens, UniProt O60885); assay: NanoBRET bromodomain assay, NanoLuc-BRD4-BD2 in HEK293 cells; assay type: binding; details: for Fold Selectivity BRD4 BD1/BD2: IC50 BD1/IC50 BD2, qualitative if an IC50 is at the upper limit
T1 construct: HEK293 cells were transfected using NanoLuc-BRD4-BD1 or NanoLuc-BRD4-BD2 fusion vectors
Description: (§1) Plates were then incubated at 37° C.+5% CO2 incubator for 2 hours.
(§2) Fold Selectivity Calculated (IC50 BD1/IC50 BD2).

[2] = target: T2, BRD4 BD1 (Homo sapiens, UniProt O60885); assay: NanoBRET bromodomain assay, NanoLuc-BRD4-BD1 in HEK293 cells; assay type: binding
T2 construct: HEK293 cells were transfected using NanoLuc-BRD4-BD1 or NanoLuc-BRD4-BD2 fusion vectors
Description: Exemplary compounds of the disclosure are active against BRD4 BD2 and selective over BRD4 BD1. BRD4 is a representative example of the BET family, as the binding sites of all BET family members are structurally similar. […] IC50s and fold selectivity's are determined as described below and are represented in Table 1.
as §1, §2

[3] = EAE study: body weight; assay type: in vivo, C57BI/6 mice; details: for Mean Body Weight / Mean Body Weight (% of Day −1): FTY720 (Group 5)
Description: (§3) Experimental Method H: EAE in animals treated with a BET inhibitor and vehicle. Animals were assigned to the groups outlined in Table 38.
(§4) Compound A may be formulated as illustrated in Experimental Method A (see Table 2E.). A 40 mg/mL stock solution of Compound A in DMSO was prepared and aliquots stored at −20° C. On each day of preparation an e.g., 0.75 mL aliquot of thawed stock was diluted with an equal volume of DMSO. The remaining vehicle components were added to provide the highest dose and then diluted with vehicle to provide lower doses. A 30 mg/mL stock solution of FTY720 in ethanol was prepared and stored at −20° C. Daily, the stock solution was diluted with room temperature water to a final dosing concentration of 0.6 mg/mL. Formulated Compound A, FTY720 and vehicle were each at room temperature for dosing.
(§5) Female C57BI/6 mice (9 weeks old) were acclimated for seven days prior to study initiation. On Day-1, animals were assigned to groups in a balanced manner to achieve similar average weights across the different groups. Chronic EAE was induced in female C57BI/6 mice following immunization with an emulsion of MOG35-55/CFA on Day 0, followed by an injection of pertussis toxin two hours after the initial immunization. On Day 1, a second injection of pertussis toxin was administered 24 hours after the initial immunization. Mice were injected subcutaneously at two sites on the back with the MOG35-55/CFA emulsion (Hooke Kit™ MOG35-55/CFA Emulsion PTX). The first injection site was located approximately 1 cm caudal of the neckline (upper back), and the second injection site was approximately 2 cm cranial of the base of the tail (lower back). The injection volume was 0.1 mL for each injection. The pertussis toxin was administered at the described times through intraperitoneal injection at a concentration of 85 ng/dose for both injections.
(§6) Body weight was measured three times a week (Monday, Wednesday, and Friday) starting on Day-1. Animals were scored daily for EAE starting on Day 7. In-between scores were assigned when the clinical signs fell between two below defined scores.

[4] = system: experimental autoimmune encephalomyelitis; assay: Experimental autoimmune encephalomyelitis (EAE) model: EAE scores, onset, incidence; assay type: in vivo, C57BI/6 mice; details: FTY720 (Group 5)
Description: as §3, §4, §5, §6

SMILES: Cn1cc(-c2cccnc2)c(-c2cn(C)c(=O)c3[nH]c(-c4cnn(C(F)(F)F)c4)c(F)c23)cc1=O [Example 67, 3-fluoro-6-methyl-4-(1-methyl-6-oxo-1,6-dihydro-[3,3′-bipyridin]-4-yl)-2-(1-(trifluoromethyl)-1H-pyrazol-4-yl)-1,6-dihydro-7H-pyrrolo[2,3-c]pyridin-7-one]
IC50 [1]: 10 to 50 nM
Fold Selectivity BRD4 BD1/BD2 [1]: xxx (Fold >200 and ≤1000)
IC50 [2]: > 1000 nM

SMILES: COc1cccc(-c2cc3c(-c4cc(=O)n(C5CC5)cc4Oc4c(C)cccc4C)cn(C)c(=O)c3[nH]2)c1F [Example 40, 4-(1-cyclopropyl-5-(2,6-dimethylphenoxy)-2-oxo-1,2-dihydropyridin-4-yl)-2-(2-fluoro-3-methoxyphenyl)-6-methyl-1,6-dihydro-7H-pyrrolo[2,3-c]pyridin-7-one]
IC50 [1]: 10 to 50 nM
Fold Selectivity BRD4 BD1/BD2 [1]: xxx (Fold >200 and ≤1000)
IC50 [2]: > 1000 nM

SMILES: Cn1cc(-c2ccccc2)c(-c2cn(C)c(=O)c3[nH]c(-c4ccccc4F)cc23)cc1=O [Example 42, 2-(2-fluorophenyl)-6-methyl-4-(1-methyl-2-oxo-5-phenyl-1,2-dihydropyridin-4-yl)-1,6-dihydro-7H-pyrrolo[2,3-c]pyridin-7-one]
IC50 [1]: < 10 nM
Fold Selectivity BRD4 BD1/BD2 [1]: xxxx (Fold >1000)
IC50 [2]: > 1000 nM

SMILES: Cc1cccc(C)c1Oc1cn(C)c(=O)cc1-c1cn(C)c(=O)c2[nH]c(-c3cccc(C(F)(F)F)c3F)cc12 [Example 98]
IC50 [1]: 50 to 200 nM
Fold Selectivity BRD4 BD1/BD2 [1]: xx (Fold >50 and ≤200)
IC50 [2]: > 1000 nM

SMILES: CCCCCCCCc1ccc(CCC(N)(CO)CO)cc1 [FTY720, reference compound]
Mean Body Weight ([3]; Day 0): 20.3 g
Mean Body Weight (% of Day −1) ([3]; Day 0): 100.7 % of Day −1
Mean Body Weight ([3]; Day 2): 19.9 g
Mean Body Weight (% of Day −1) ([3]; Day 2): 98.4 % of Day −1
Mean Body Weight ([3]; Day 5): 21.2 g
Mean Body Weight (% of Day −1) ([3]; Day 5): 105.1 % of Day −1
Mean Body Weight ([3]; Day 7): 21.3 g
Mean Body Weight (% of Day −1) ([3]; Day 7): 105.4 % of Day −1
Mean Body Weight ([3]; Day 9): 21.8 g
Mean Body Weight (% of Day −1) ([3]; Day 9): 108.2 % of Day −1
Mean Body Weight ([3]; Day 12): 21.5 g
Mean Body Weight (% of Day −1) ([3]; Day 12): 106.5 % of Day −1
Mean Body Weight ([3]; Day 14): 21.6 g
Mean Body Weight (% of Day −1) ([3]; Day 14): 107.2 % of Day −1
Mean Body Weight ([3]; Day 16): 21.6 g
Mean Body Weight (% of Day −1) ([3]; Day 16): 107.0 % of Day −1
Mean Body Weight ([3]; Day 19): 21.6 g
Mean Body Weight (% of Day −1) ([3]; Day 19): 106.9 % of Day −1
Mean Body Weight ([3]; Day 21): 21.7 g
Mean Body Weight (% of Day −1) ([3]; Day 21): 107.5 % of Day −1
Mean Body Weight ([3]; Day 23): 22.0 g
Mean Body Weight (% of Day −1) ([3]; Day 23): 109.3 % of Day −1
Mean Body Weight ([3]; Day 27): 21.9 g
Mean Body Weight (% of Day −1) ([3]; Day 27): 108.3 % of Day −1
Mean Body Weight ([3]; Day 28): 22.0 g
Mean Body Weight (% of Day −1) ([3]; Day 28): 108.9 % of Day −1
Mean Body Weight ([3]; Day −1): 20.2 g
Mean Body Weight (% of Day −1) ([3]; Day −1): 100.0 % of Day −1
Mean Body Weight Change (% of Day −1) ([3]; FTY720, mean end body weight): 108.9*** % of Day −1
Incidence of EAE (%) [4]: 16.7*** %
Mean Day of Onset (SEM) [4]: 18.5 (0.5) Day
Mean End Score (SEM) [4]: 0.21 (0.14)***
Mean Maximum Score (SEM) [4]: 0.33 (0.23)***
Median Day of Onset [4]: >28.0 days
Mean EAE score ([4]; Day 7): 0.00
Mean EAE score ([4]; Day 8): 0.00
Mean EAE score ([4]; Day 9): 0.00
Mean EAE score ([4]; Day 10): 0.00
Mean EAE score ([4]; Day 11): 0.00
Mean EAE score ([4]; Day 12): 0.00
Mean EAE score ([4]; Day 13): 0.00
Mean EAE score ([4]; Day 14): 0.00
Mean EAE score ([4]; Day 15): 0.00
Mean EAE score ([4]; Day 16): 0.00
Mean EAE score ([4]; Day 17): 0.00
Mean EAE score ([4]; Day 18): 0.13
Mean EAE score ([4]; Day 19): 0.25
Mean EAE score ([4]; Day 20): 0.25
Mean EAE score ([4]; Day 21): 0.29
Mean EAE score ([4]; Day 22): 0.33
Mean EAE score ([4]; Day 23): 0.29
Mean EAE score ([4]; Day 24): 0.29
Mean EAE score ([4]; Day 25): 0.21
Mean EAE score ([4]; Day 26): 0.21
Mean EAE score ([4]; Day 27): 0.21
Mean EAE score ([4]; Day 28): 0.21

Now from value to compound:

IC50 [1]: < 10 nM
Fold Selectivity BRD4 BD1/BD2 [1]: xx (Fold >50 and ≤200)
IC50 [2]: 50 to 500 nM
SMILES: Cn1cc(-c2ccccc2)c(-c2cn(C)c(=O)c3[nH]c(-c4cccc(C5COC5)c4)cc23)cc1=O [Example 84]

IC50 [1]: < 10 nM
Fold Selectivity BRD4 BD1/BD2 [1]: xxxx (Fold >1000)
IC50 [2]: > 1000 nM
SMILES: Cn1cc(-c2cc(=O)n(C3CC3)cc2-c2ccccc2)c2cc(-c3ccc(F)cc3F)[nH]c2c1=O [Example 49, 4-(1-cyclopropyl-2-oxo-5-phenyl-1,2-dihydropyridin-4-yl)-2-(2,4-difluorophenyl)-6-methyl-1,6-dihydro-7H-pyrrolo[2,3-c]pyridin-7-one]

IC50 [1]: 50 to 200 nM
Fold Selectivity BRD4 BD1/BD2 [1]: xx (Fold >50 and ≤200)
IC50 [2]: > 1000 nM
SMILES: Cn1cc(-c2ccccc2)c(-c2cn(C)c(=O)c3[nH]c(-c4c(F)cccc4F)cc23)cc1=O [Example 82]
